# Test results: the kinase profiling compilation of Christmann-Franck et al. (2016)
# Key:
# Experiment in all cases: radiometric filter-binding kinase assay, Kinase HotSpot
# Conditions in all cases: compound 0.5 µM; ATP 10 µM
# [1] = biological target: AKT1 (human) (UniProt P31749)
# [2] = biological target: AKT3 (human) (UniProt Q9Y243)
# [3] = biological target: BRAF (human) (UniProt P15056)
# [4] = biological target: BRSK2 (human) (UniProt Q8IWQ3)
# [5] = biological target: CAMK2D (human) (UniProt Q13557)
# [6] = biological target: CDC42BPA (human) (UniProt Q5VT25)
# [7] = biological target: CDK1 CCNB1 (human) (UniProt P06493+P14635)
# [8] = biological target: CDK2 CCNA2 (human) (UniProt P24941+P20248)
# [9] = biological target: CLK4 (human) (UniProt Q9HAZ1)
# [10] = biological target: CSNK1D (human) (UniProt P48730)
# [11] = biological target: DAPK2 (human) (UniProt Q9UIK4)
# [12] = biological target: EPHA3 (human) (UniProt P29320)
# [13] = biological target: EPHA4 (human) (UniProt P54764)
# [14] = biological target: FGFR1 (human) (UniProt P11362)
# [15] = system: FLT4 (human), P35916 [Q890H]
# [16] = biological target: GSG2 (human) (UniProt Q8TF76)
# [17] = biological target: HIPK1 (human) (UniProt Q86Z02)
# [18] = biological target: IGF1R (human) (UniProt P08069)
# [19] = biological target: INSR (human) (UniProt P06213)
# [20] = biological target: ITK (human) (UniProt Q08881)
# [21] = biological target: JAK1 JH1 catalytic (human) (UniProt P23458)
# [22] = biological target: MAP2K1 (human) (UniProt Q02750)
# [23] = biological target: MAP3K10 (human) (UniProt Q02779)
# [24] = biological target: MAP3K11 (human) (UniProt Q16584)
# [25] = biological target: MAPK11 (human) (UniProt Q15759)
# [26] = biological target: MAPK8 (human) (UniProt P45983)
# [27] = biological target: MAPKAPK2 (human) (UniProt P49137)
# [28] = biological target: MAPKAPK5 (human) (UniProt Q8IW41)
# [29] = biological target: MARK1 (human) (UniProt Q9P0L2)
# [30] = biological target: MINK1 (human) (UniProt Q8N4C8)
# [31] = biological target: NEK9 (human) (UniProt Q8TD19)
# [32] = biological target: PAK1 (human) (UniProt Q13153)
# [33] = biological target: PDPK1 (human) (UniProt O15530)
# [34] = biological target: PHKG1 (human) (UniProt Q16816)
# [35] = biological target: PKN2 (human) (UniProt Q16513)
# [36] = biological target: RPS6KA5 KD2 (human) (UniProt O75582)
# [37] = biological target: SRC (human) (UniProt P12931)
# [38] = biological target: TXK (human) (UniProt P42681)
# MINK1 (human), sequence (Q8N4C8 whole entry, looked up): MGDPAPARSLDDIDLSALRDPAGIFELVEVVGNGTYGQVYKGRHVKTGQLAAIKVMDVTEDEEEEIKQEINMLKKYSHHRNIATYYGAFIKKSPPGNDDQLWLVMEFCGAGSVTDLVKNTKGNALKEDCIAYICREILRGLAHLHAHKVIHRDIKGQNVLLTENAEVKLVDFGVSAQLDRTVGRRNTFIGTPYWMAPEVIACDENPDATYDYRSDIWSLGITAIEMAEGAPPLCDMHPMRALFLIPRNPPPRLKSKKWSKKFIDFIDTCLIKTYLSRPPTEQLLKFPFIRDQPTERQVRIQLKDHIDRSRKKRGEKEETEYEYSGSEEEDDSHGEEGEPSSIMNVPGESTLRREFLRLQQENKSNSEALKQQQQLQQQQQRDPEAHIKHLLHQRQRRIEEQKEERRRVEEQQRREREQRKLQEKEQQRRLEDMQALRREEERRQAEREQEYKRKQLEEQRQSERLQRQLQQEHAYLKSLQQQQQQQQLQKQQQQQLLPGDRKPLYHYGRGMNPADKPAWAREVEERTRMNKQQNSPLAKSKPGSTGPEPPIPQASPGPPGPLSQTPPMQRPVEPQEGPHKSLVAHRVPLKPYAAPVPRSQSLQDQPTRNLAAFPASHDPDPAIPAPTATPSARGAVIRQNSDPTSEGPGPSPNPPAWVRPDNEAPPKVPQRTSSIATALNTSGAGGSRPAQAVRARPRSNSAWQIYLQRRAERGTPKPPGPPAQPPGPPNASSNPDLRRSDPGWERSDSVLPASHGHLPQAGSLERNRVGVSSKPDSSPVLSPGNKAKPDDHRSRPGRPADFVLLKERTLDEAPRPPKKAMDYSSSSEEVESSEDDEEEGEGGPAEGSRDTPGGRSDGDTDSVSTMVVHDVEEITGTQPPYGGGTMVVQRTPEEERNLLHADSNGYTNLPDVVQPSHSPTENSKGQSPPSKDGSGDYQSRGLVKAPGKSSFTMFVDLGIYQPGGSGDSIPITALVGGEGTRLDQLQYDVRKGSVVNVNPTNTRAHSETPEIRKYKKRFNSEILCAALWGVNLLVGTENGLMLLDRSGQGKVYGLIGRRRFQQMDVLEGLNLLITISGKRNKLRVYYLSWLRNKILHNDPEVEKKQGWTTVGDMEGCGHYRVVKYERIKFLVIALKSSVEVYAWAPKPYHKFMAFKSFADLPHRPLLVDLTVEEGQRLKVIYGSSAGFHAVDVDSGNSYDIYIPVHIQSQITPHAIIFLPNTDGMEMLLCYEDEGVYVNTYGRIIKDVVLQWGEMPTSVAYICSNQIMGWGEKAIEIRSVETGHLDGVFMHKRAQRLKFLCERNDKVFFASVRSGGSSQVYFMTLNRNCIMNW
# CLK4 (human), sequence (Q9HAZ1 whole entry, looked up): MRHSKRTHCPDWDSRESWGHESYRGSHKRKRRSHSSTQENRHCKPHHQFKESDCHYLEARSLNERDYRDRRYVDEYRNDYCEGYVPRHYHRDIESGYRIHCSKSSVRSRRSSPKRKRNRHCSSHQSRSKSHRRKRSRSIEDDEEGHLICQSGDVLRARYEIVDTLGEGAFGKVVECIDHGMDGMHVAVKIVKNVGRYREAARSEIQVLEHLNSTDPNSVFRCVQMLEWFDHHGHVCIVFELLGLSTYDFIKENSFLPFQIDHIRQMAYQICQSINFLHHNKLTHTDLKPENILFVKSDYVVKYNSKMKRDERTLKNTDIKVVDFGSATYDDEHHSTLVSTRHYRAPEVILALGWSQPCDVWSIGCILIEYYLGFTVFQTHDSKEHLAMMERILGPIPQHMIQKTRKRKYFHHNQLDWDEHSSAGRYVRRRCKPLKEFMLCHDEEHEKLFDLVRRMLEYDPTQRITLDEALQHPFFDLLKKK
# FLT4 (human), P35916 [Q890H], sequence (P35916 whole entry, looked up, stated change not applied): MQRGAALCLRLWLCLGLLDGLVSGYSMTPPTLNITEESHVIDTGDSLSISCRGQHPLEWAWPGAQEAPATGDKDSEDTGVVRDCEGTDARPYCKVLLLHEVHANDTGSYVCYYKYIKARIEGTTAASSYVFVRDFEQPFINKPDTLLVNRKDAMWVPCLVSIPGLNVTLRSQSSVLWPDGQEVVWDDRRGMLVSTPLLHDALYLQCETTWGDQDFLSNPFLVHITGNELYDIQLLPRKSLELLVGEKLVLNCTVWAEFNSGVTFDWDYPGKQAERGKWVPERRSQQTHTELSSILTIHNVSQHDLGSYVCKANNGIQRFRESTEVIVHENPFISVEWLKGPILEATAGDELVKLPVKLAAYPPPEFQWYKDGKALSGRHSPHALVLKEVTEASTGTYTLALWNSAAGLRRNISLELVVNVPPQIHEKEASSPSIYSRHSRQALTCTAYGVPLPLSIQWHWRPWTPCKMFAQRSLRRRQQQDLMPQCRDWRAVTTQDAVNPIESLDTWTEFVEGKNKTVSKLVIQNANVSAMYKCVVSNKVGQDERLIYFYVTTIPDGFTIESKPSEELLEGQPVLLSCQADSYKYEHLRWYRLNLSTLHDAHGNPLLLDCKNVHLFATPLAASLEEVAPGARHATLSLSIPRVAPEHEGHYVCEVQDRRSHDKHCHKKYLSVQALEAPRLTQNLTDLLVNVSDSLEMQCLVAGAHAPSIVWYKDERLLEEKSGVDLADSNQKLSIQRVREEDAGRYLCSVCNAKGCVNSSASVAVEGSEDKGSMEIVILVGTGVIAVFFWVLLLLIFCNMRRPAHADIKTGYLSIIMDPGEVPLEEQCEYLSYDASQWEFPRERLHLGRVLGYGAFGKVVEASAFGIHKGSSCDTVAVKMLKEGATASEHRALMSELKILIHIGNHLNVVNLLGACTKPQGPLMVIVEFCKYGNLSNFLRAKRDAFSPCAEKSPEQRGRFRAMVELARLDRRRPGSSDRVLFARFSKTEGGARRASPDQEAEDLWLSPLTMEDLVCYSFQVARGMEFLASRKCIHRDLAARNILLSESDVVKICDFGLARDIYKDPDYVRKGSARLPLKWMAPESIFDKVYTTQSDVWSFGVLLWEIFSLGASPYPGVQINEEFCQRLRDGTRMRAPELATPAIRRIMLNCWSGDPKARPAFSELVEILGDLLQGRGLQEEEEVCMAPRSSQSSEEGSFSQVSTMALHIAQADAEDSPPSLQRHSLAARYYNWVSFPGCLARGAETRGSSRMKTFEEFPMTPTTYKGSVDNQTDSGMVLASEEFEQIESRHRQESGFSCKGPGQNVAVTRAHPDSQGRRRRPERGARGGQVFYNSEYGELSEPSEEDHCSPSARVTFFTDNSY
# MAPK11 (human), sequence (Q15759 whole entry, looked up): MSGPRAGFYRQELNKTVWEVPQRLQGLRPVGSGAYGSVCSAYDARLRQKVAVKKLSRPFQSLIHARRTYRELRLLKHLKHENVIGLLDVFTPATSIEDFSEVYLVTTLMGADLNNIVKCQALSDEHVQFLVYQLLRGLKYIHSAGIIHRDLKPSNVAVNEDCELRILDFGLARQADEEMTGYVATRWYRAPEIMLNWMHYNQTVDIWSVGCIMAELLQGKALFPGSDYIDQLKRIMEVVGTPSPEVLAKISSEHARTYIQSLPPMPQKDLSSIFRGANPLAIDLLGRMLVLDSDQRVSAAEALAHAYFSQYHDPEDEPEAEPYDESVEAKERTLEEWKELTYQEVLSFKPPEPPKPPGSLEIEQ
# CDK2 CCNA2 (human), sequence (P20248 whole entry, looked up, other chains not shown): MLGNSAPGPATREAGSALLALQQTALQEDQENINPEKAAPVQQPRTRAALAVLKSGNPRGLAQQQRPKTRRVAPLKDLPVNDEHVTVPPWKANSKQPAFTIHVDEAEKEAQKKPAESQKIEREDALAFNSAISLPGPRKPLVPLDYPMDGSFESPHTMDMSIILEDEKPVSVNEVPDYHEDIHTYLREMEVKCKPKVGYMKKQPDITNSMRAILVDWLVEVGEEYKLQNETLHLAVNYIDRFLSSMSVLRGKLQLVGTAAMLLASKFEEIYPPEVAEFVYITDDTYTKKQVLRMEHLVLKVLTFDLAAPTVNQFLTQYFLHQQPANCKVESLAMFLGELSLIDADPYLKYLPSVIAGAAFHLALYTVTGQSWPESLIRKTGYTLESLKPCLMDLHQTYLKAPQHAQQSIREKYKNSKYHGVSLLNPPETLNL
# AKT3 (human), sequence (Q9Y243 whole entry, looked up): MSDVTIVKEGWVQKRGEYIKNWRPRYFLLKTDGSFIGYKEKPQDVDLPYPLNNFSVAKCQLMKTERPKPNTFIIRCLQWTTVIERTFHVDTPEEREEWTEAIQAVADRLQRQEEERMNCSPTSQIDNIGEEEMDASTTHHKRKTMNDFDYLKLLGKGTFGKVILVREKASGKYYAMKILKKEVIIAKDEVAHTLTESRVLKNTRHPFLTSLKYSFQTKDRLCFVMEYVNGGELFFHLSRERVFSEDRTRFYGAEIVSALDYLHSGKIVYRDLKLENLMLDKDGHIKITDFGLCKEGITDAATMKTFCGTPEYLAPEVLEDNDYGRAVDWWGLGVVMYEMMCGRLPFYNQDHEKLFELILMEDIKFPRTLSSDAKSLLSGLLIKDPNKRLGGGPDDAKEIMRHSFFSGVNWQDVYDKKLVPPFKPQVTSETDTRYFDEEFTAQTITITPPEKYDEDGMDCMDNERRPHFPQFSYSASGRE
# MAP2K1 (human), sequence (Q02750 whole entry, looked up): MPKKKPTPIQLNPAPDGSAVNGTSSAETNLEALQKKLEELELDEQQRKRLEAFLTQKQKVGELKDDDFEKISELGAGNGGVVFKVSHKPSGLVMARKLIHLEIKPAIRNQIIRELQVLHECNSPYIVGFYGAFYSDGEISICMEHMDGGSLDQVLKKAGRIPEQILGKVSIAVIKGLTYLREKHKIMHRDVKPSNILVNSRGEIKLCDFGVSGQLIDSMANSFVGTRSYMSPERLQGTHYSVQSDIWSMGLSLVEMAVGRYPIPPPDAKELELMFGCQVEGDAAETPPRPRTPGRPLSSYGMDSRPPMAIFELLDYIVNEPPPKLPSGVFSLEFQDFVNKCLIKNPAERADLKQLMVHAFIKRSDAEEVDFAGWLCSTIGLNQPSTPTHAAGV
SMILES,residual activity [1],residual activity [2],residual activity [4],residual activity [5],residual activity [6],residual activity [7],residual activity [8],residual activity [9],residual activity [10],residual activity [11],residual activity [12],residual activity [13],residual activity [14],residual activity [15],residual activity [16],residual activity [17],residual activity [18],residual activity [19],residual activity [20],residual activity [21],other results
CN(C)c1ccc(/C=C2\C(=O)Nc3ccccc32)cc1,101%,103%,93%,96.4%,101%,94.1%,102%,94.1%,69%,105%,102%,95.2%,92%,98.8%,88.5%,103%,101%,93.4%,99%,105%,residual activity [3]: 101%; residual activity [22]: 97.8%; residual activity [23]: 96.6%; residual activity [24]: 88.4%; residual activity [25]: 93.5%; residual activity [26]: 103%; residual activity [27]: 106%; residual activity [28]: 98.6%; residual activity [29]: 97.3%; residual activity [30]: 79%; residual activity [31]: 99.8%; residual activity [32]: 95.7%; residual activity [33]: 82.3%; residual activity [34]: 99.1%; residual activity [35]: 98.9%; residual activity [36]: 98.7%; residual activity [37]: 102%; residual activity [38]: 96.1%
COc1ccc(Cl)cc1NC(=O)Nc1cc(C)nc2ccccc12,95.8%,103%,95.2%,98.2%,98.8%,81.1%,98.6%,108%,98.7%,99.1%,99.1%,104%,86.1%,100%,95.7%,97.2%,94.9%,93.2%,96%,99.3%,residual activity [3]: 98.9%; residual activity [22]: 101%; residual activity [23]: 94.9%; residual activity [24]: 89%; residual activity [25]: 92%; residual activity [26]: 104%; residual activity [27]: 109%; residual activity [28]: 89.1%; residual activity [29]: 102%; residual activity [30]: 88.7%; residual activity [31]: 104%; residual activity [32]: 94.8%; residual activity [33]: 83.9%; residual activity [34]: 102%; residual activity [35]: 89.7%; residual activity [36]: 88.4%; residual activity [37]: 99%; residual activity [38]: 98.9%
O=C(c1cc2cc(O)ccc2[nH]1)c1cc2cc(O)ccc2[nH]1,98.2%,102%,44.3%,63.7%,90.2%,60.5%,61.5%,79.1%,92.5%,101%,101%,109%,86.5%,67.1%,34.8%,94.3%,103%,93.8%,77.7%,98.7%,residual activity [3]: 97.4%; residual activity [22]: 103%; residual activity [23]: 91.7%; residual activity [24]: 24.5%; residual activity [25]: 95.7%; residual activity [26]: 112%; residual activity [27]: 103%; residual activity [28]: 89.6%; residual activity [29]: 66.3%; residual activity [30]: 9.87%; residual activity [31]: 93.6%; residual activity [32]: 94.6%; residual activity [33]: 97.2%; residual activity [34]: 72.1%; residual activity [35]: 97.1%; residual activity [36]: 96.1%; residual activity [37]: 36.4%; residual activity [38]: 74.9%
CC(C)(C)c1cc(C=C(C#N)C#N)cc(Br)c1O,108%,111%,94.5%,96%,101%,72.6%,90.7%,88.6%,85.5%,108%,102%,94.7%,95.9%,102%,67.2%,104%,96.6%,105%,98.4%,107%,residual activity [22]: 90.8%; residual activity [23]: 100%; residual activity [24]: 97.4%; residual activity [25]: 100%; residual activity [26]: 90.4%; residual activity [27]: 92.3%; residual activity [28]: 97.4%; residual activity [29]: 98.8%; residual activity [30]: 111%; residual activity [31]: 103%; residual activity [32]: 89.9%; residual activity [33]: 102%; residual activity [34]: 96.7%; residual activity [35]: 64.3%; residual activity [36]: 108%; residual activity [37]: 87.4%; residual activity [38]: 108%
Ic1cccc(CSc2nnc(-c3ccncc3)o2)c1,98.6%,90.7%,99.3%,96.8%,98.4%,92%,100%,90%,103%,108%,111%,105%,92.4%,96.2%,95.9%,105%,99.1%,83.5%,102%,103%,residual activity [22]: 95.4%; residual activity [23]: 102%; residual activity [24]: 99.6%; residual activity [25]: 96.9%; residual activity [26]: 84.7%; residual activity [27]: 93.5%; residual activity [28]: 83.6%; residual activity [29]: 111%; residual activity [30]: 90.2%; residual activity [31]: 99.2%; residual activity [32]: 94.8%; residual activity [33]: 98.3%; residual activity [34]: 105%; residual activity [35]: 100%; residual activity [36]: 97.2%; residual activity [37]: 101%; residual activity [38]: 96.8%
